Reference: US20110105554A1, “MEANS FOR TREATING MYOSIN-RELATED DISEASES” (KINARIS BIOMEDICALS GMBH, priority 2007, published 2011)

Test system: human hepatocyte carcinoma cells (Hep G2)
Experiment: cells
Settings: Homo sapiens, HepG2, 4 h, read-out: half effective concentration EC50, neutral red uptake
Experimental: Cytotoxicity may be assayed by determining the cellular uptake of neutral red. Only living cells are capable of neutral red uptake via an active transport mechanism. For an exemplary workflow of a cytotoxicity assay, see FIG. 16.
FIG. 16: Cytotoxicity assay.
FIG. 22: Cytotoxic testing of KIN-compounds by neutral red uptake assays. (a) human hepatocyte carcinoma cells (Hep G2) were exposed to KIN-43 for 4 h in the in presence of 1% FBS.
We are using a library of common organic molecules and functional groups and are applying an empirical force field description of the nonbonding interactions between a ligand and the binding site in order to build up de novo compounds with spatial and electrostatic properties complementary to the allosteric binding site.

For `Oc1c(Br)cc(Br)cc1-c1[nH]c(Br)c(Br)c1Br` [KIN-43], which EC50 is on record?
Its EC50 is 30 nM.
